Measurements: US12185723B2, “Herbicidally active 3-phenylisoxazoline-5-carboxamides of s-containing cyclopentenylcarboxylic esters” (Bayer Aktiengesellschaft, priority 2019, dated 2025)

Legend:
Type in all cases: in vivo
Hordeum murinum = assay: Post-emergence herbicidal action against HORMU
Method: (§1) Post-Emergence Herbicidal Action Against Harmful Plants and Crop Plant Compatibility Seeds of monocotyledonous and dicotyledonous weeds and crop plants are placed in sandy loam in plastic or wood-fibre pots, covered with soil and cultivated in a greenhouse under controlled growth conditions. 2 to 3 weeks after sowing, the test plants are treated at the one-leaf stage. The compounds of the invention, formulated in the form of wettable powders (WP) or as emulsion concentrates (EC), are then sprayed onto the green parts of the plants as aqueous suspension or emulsion with addition of 0.5% additive at a water application rate of 600 l/ha (converted). After the test plants have been kept in the greenhouse under optimum growth conditions for about 3 weeks, the activity of the preparations is rated visually in comparison to untreated controls. For example, 100% activity=the plants have died, 0% activity=like control plants. [table]

Alopecurus myosuroides = assay: Post-emergence herbicidal action against ALOMY; conditions: visual rating about 3 weeks after treatment
In short: (§2)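 Weeds sown in sandy loam, greenhouse-grown 2 to 3 weeks and treated at the one-leaf stage. Compounds formulated as WP or EC were sprayed onto green parts as aqueous suspension/emulsion with 0.5% additive at 600 l/ha water. Activity rated visually after about 3 weeks versus untreated controls (100% = plants dead, 0% = like control).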

Amaranthus retroflexus = assay: Post-emergence herbicidal action against AMARE
In short: as §2

Viola tricolor = assay: Post-emergence herbicidal action against VIOTR
Method: as §1

Echinochloa crus-galli = assay: Post-emergence herbicidal action against ECHCG; conditions: visual rating about 3 weeks after treatment
In short: as §2

Veronica persica = assay: Post-emergence herbicidal action against VERPE
In short: as §2

Avena fatua = assay: Post-emergence herbicidal action against AVEFA; conditions: visual rating about 3 weeks after treatment
In short: as §2

Stellaria media = assay: Post-emergence herbicidal action against STEME
Method: as §1

Matricaria inodora = assay: Post-emergence herbicidal action against MATIN
Method: as §1

Pharbitis purpurea = assay: Post-emergence herbicidal action against PHBPU
In short: as §2

Abutilon theophrasti = assay: Post-emergence herbicidal action against ABUTH; conditions: visual rating about 3 weeks after treatment
In short: as §2

DIGSA = assay: Post-emergence herbicidal action against DIGSA; conditions: visual rating about 3 weeks after treatment
In short: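 Greenhouse-grown plants sprayed at one-leaf stage (2–3 weeks after sowing) with WP or EC formulations as aqueous suspension/emulsion plus 0.5% additive, 600 l/ha water. Activity rated visually about 3 weeks later versus untreated controls, 100% = plants dead, 0% = like controls.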

Lolium rigidum = assay: Post-emergence herbicidal action against LOLRI; conditions: visual rating about 3 weeks after treatment
In short: as §2

Setaria viridis = assay: Post-emergence herbicidal action against SETVI; conditions: visual rating about 3 weeks after treatment
In short: as §2

Polygonum convolvulus = assay: Post-emergence herbicidal action against POLCO
In short: as §2

[1] = 80 g a.i./ha, visual rating about 3 weeks after treatment

| Compound | Herbicidal action against [%] HORMU (Hordeum murinum; 20 g a.i./ha) | Herbicidal action against [%] HORMU (Hordeum murinum; 80 g a.i./ha) | Herbicidal action against [%] ALOMY (Alopecurus myosuroides; 20 g a.i./ha) | Herbicidal action against [%] ALOMY (Alopecurus myosuroides; 80 g a.i./ha) | Herbicidal action against [%] AMARE (Amaranthus retroflexus; [1]) | Herbicidal action against [%] VIOTR (Viola tricolor; 20 g a.i./ha) | Herbicidal action against [%] ECHCG (Echinochloa crus-galli; 80 g a.i./ha) | Herbicidal action against [%] VERPE (Veronica persica; 20 g a.i./ha) | Herbicidal action against [%] VERPE (Veronica persica; 80 g a.i./ha) | Herbicidal action against [%] AVEFA (Avena fatua; 20 g a.i./ha) | Herbicidal action against [%] AVEFA (Avena fatua; 80 g a.i./ha) | Herbicidal action against [%] STEME (Stellaria media; 20 g a.i./ha) | Herbicidal action against [%] STEME (Stellaria media; 80 g a.i./ha) | Herbicidal action against [%] MATIN (Matricaria inodora; [1]) | Herbicidal action against [%] DIGSA (DIGSA; 20 g a.i./ha) | Herbicidal action against [%] DIGSA (DIGSA; 80 g a.i./ha) | Herbicidal action against [%] LOLRI (Lolium rigidum; 20 g a.i./ha) | Herbicidal action against [%] LOLRI (Lolium rigidum; 80 g a.i./ha) | Herbicidal action against [%] SETVI (Setaria viridis; 20 g a.i./ha) | Herbicidal action against [%] SETVI (Setaria viridis; 80 g a.i./ha) | other results |
| --- | --- | --- | --- | --- | --- | --- | --- | --- | --- | --- | --- | --- | --- | --- | --- | --- | --- | --- | --- | --- | --- |
| CSCCOC(=O)C1C=CC(NC(=O)C2(C(F)(F)F)CC(c3cc(F)cc(F)c3)=NO2)C1 (centres unmarked) [Example I-17] | 90% | 90% | 90% | 90% | 80% | 80% | 90% | 80% | 80% | 100% | 100% | 80% | 90% | 80% | 90% | 90% | 100% | 100% | 80% | 80% | Herbicidal action against [%] AMARE (Amaranthus retroflexus; 20 g a.i./ha): 80%; Herbicidal action against [%] VIOTR (Viola tricolor; 80 g a.i./ha): 80%; Herbicidal action against [%] ECHCG (Echinochloa crus-galli; 20 g a.i./ha): 80%; Herbicidal action against [%] MATIN (Matricaria inodora; 20 g a.i./ha): 80%; Herbicidal action against [%] PHBPU (Pharbitis purpurea; 20 g a.i./ha): 80%; Herbicidal action against [%] PHBPU (Pharbitis purpurea; 80 g a.i./ha): 80%; Herbicidal action against [%] ABUTH (Abutilon theophrasti; 20 g a.i./ha): 80%; Herbicidal action against [%] ABUTH (Abutilon theophrasti; 80 g a.i./ha): 80%; Herbicidal action against [%] POLCO (Polygonum convolvulus; 20 g a.i./ha): 80%; Herbicidal action against [%] POLCO (Polygonum convolvulus; 80 g a.i./ha): 80% |
| C=CC1(C(=O)NC2C=CC(C(=O)OCCSC)C2)CC(c2cc(C)cc(F)c2)=NO1 (mixture of isomers) [Example I-47] | – | 80% | 90% | 90% | 100% | 90% | 80% | 80% | 80% | 80% | 90% | 90% | 90% | 80% | 80% | 90% | 80% | 80% | 80% | 80% | – |
| CSCCOC(=O)C1=CC(NC(=O)C2(C)CC(c3cc(F)cc(F)c3)=NO2)CC1 (centres unmarked) [Example I-51] | 90% | 90% | 90% | 90% | 80% | 90% | 90% | 90% | 90% | 100% | 100% | 90% | 90% | 80% | 80% | 80% | 90% | 100% | 80% | 80% | Herbicidal action against [%] ECHCG (Echinochloa crus-galli; 20 g a.i./ha): 80%; Herbicidal action against [%] PHBPU (Pharbitis purpurea; 80 g a.i./ha): 80%; Herbicidal action against [%] POLCO (Polygonum convolvulus; 80 g a.i./ha): 80% |
| CSCCOC(=O)C1C=CC(NC(=O)C2(C)CC(c3cc(F)cc(Cl)c3)=NO2)C1 (centres unmarked) [Example I-32] | 80% | 80% | 90% | 100% | 80% | 80% | 80% | 80% | 90% | 90% | 90% | 80% | 90% | 80% | 80% | 80% | 90% | 90% | 80% | 80% | Herbicidal action against [%] ECHCG (Echinochloa crus-galli; 20 g a.i./ha): 80%; Herbicidal action against [%] MATIN (Matricaria inodora; 20 g a.i./ha): 80%; Herbicidal action against [%] PHBPU (Pharbitis purpurea; 80 g a.i./ha): 80% |
| CSCCOC(=O)C1C=CC(NC(=O)C2(C)CC(c3cc(Cl)cc(C#N)c3)=NO2)C1 (mixture of isomers) [Example I-49] | 80% | 80% | 90% | 100% | 100% | 90% | 80% | 80% | 90% | 90% | 90% | 90% | 90% | 80% | 80% | 90% | 90% | 90% | – | 80% | Herbicidal action against [%] AMARE (Amaranthus retroflexus; 20 g a.i./ha): 90%; Herbicidal action against [%] VIOTR (Viola tricolor; 80 g a.i./ha): 80%; Herbicidal action against [%] PHBPU (Pharbitis purpurea; 20 g a.i./ha): 80%; Herbicidal action against [%] ABUTH (Abutilon theophrasti; 80 g a.i./ha): 80% |
| COC1(C(=O)NC2C=CC(C(=O)OCCSC)C2)CC(c2cccc(F)c2)=NO1 (mixture of isomers) [Example I-36] | – | – | – | 80% | – | 80% | – | 80% | 80% | – | 80% | 80% | 80% | 80% | – | – | – | – | – | – | Herbicidal action against [%] PHBPU (Pharbitis purpurea; 20 g a.i./ha): 80%; Herbicidal action against [%] PHBPU (Pharbitis purpurea; 80 g a.i./ha): 80%; Herbicidal action against [%] ABUTH (Abutilon theophrasti; 80 g a.i./ha): 80% |
| CSCCOC(=O)C1C=CC(NC(=O)C2(C3CC3)CC(c3cc(F)cc(F)c3)=NO2)C1 (centres unmarked) [Example I-28] | 90% | 90% | 90% | 90% | 80% | 90% | 90% | 90% | 90% | 90% | 90% | 90% | 90% | 90% | 90% | 90% | 90% | 90% | 90% | 90% | Herbicidal action against [%] AMARE (Amaranthus retroflexus; 20 g a.i./ha): 80%; Herbicidal action against [%] VIOTR (Viola tricolor; 80 g a.i./ha): 80%; Herbicidal action against [%] ECHCG (Echinochloa crus-galli; 20 g a.i./ha): 90%; Herbicidal action against [%] MATIN (Matricaria inodora; 20 g a.i./ha): 80%; Herbicidal action against [%] ABUTH (Abutilon theophrasti; 20 g a.i./ha): 90%; Herbicidal action against [%] ABUTH (Abutilon theophrasti; 80 g a.i./ha): 90%; Herbicidal action against [%] POLCO (Polygonum convolvulus; 20 g a.i./ha): 80%; Herbicidal action against [%] POLCO (Polygonum convolvulus; 80 g a.i./ha): 90% |
| CSCCOC(=O)[C@@H]1C=C[C@H](NC(=O)C2(C(F)(F)F)CC(c3cc(F)cc(Cl)c3)=NO2)C1 (stereo partly drawn) [Example I-33, 2-methylsulfanylethyl (1S,4R)-4-[[3-(3-chloro-5-fluorophenyl)-5-(trifluoromethyl)-4H-isoxazole-5-carbonyl]amino]cyclopent-2-ene-1-carboxylate] | 80% | 90% | 80% | 90% | – | 90% | 80% | 80% | 80% | 80% | 100% | 90% | 90% | 80% | 80% | 80% | 90% | 90% | 80% | 80% | Herbicidal action against [%] MATIN (Matricaria inodora; 20 g a.i./ha): 80%; Herbicidal action against [%] ABUTH (Abutilon theophrasti; 20 g a.i./ha): 80%; Herbicidal action against [%] ABUTH (Abutilon theophrasti; 80 g a.i./ha): 80% |
